Results on 15 compounds are retold here after ChEMBL document CHEMBL5728837, “Non-fused tricyclic compounds” (2021).

The structures appear in SMILES notation. A value given as a limit tells only on which side of the number the result lay.

This assay can be described thus: YAP Reporter Assay: HEK293T cells stably transfected with 8XTBD luciferase reporter and pRLTK in 384-well plates were treated with the test compounds, starting from 3 μM (final concentration in assay plate), 1:3 dilution, and 10 points in quadruplicates. Post 24-hr incubation with compounds at 37° C. and 5% CO2, cells were lysed and 8XTBD-driven firefly luciferase and control TK-driven renilla luciferase activities were measured using Promega Dual-Luciferase Reporter Assay System.Reagents: The reagents used for this study are: DMEM: Invitrogen #11960077, Dual-Glo Luciferase Assay System: Promega-E2980, Puromycin Dihydrochloride: Invitrogen-A1113803, 384-well plate: PerkinElmer-6007480, L-GLUTAMINE: Invitrogen-25030164, Hygromycin B: Invitrogen-10687010, and Penicillin-Streptomycin: Merk-TMS-AB2-CMedia: The media used for this assay were: Culture Medium: DMEM+1 ug/mL puromycin+200 ug/mL hygromycin (with 10% FBS+1 mM L-glutamine); and Assay Medium: DMEM (with 10% FBS+1 mM L-glutamine+1× P/S).Cell Plating: The appropriate media was warmed at 37° C. by water bath: Culture Medium, Assay Medium, 1*D-PBS, 0.05% trypsin-EDTA. The cells were trypsinized after removing all media, then washed with 1*sterile D-PBS and then with 2 ml 0.05% trypsin-EDTA. The cells were then incubated at RT for one minute. Then 10 ml/75 cm2 flask Assay Medium was added to each flask. Using a 10 ml pipette, the cells were then gently resuspended in the media, until the clumps completely disappeared. The cells were then transferred into 50 ml centrifuge tubes and were centrifuged at 800 rpm for 5 mins. The medium was removed and the cells were resuspended with Assay Medium. An aliquot of cells was used to count the cell density (cells/nil). The cell suspension was then diluted with Assay Medium to a concentration of 6×10^4 cells/ml. 50 ul cells suspension was then plated to 384-well plate (PerkinElmer-6007480), 3×10^3 cells/well and the cells were incubated in an incubator at 37° C., 5% CO2.Compound Treatment: In the afternoon (incubation of the plate with 3-4 hrs), the test compounds were added by Echo, starting from 3 uM (final concentration in the assay plate), 1:3 dilution, 10 points, quadruplicates. The plate was placed at 37° C., 5% CO2 incubator for 24 hrs.Detection: The Dual-Glo Luciferase Reagent was prepared by transferring the contents of one bottle of Dual-Glo Luciferase Buffer to one bottle of Dual-Glo Luciferase Substrate to create the Dual-Glo Luciferase Reagent. Mixing was performed by inversion until the substrate was thoroughly dissolved. After mixing, the reagent was aliquoted into 15 ml tubes. In the afternoon (24 hrs post compound treatment), the DMEM+ medium in the 384 well plates were aspirated by Microplate Washer.Measuring firefly luciferase activity: 20 ul Dual-Glo Luciferase Reagent was added to the 384-well plates. The plates were protected from light to prevent interference with the assay. The plates were shaken for 1 min followed centrifuging plates at 1000 rpm for 30 seconds. After waiting at least 10 minutes, the firefly luminescence was measured by Envision.Measuring renilla luciferase activity: 20 ul Stop-Glo Reagent was added to the 384-well plates. The plates were shaken for lmin and then centrifuged at 1000 rpm for 30 seconds. After waiting at least 10 minutes, the renilla luminescence was measured by Envision. Conditions: HEK-293T, 24 h.
One may read the IC50 as the concentration that gives 50% inhibition. In the case of `NCC(CO)n1nnc(-c2ccccc2Nc2ccc(C(F)(F)F)cc2)n1` (stereo not given), the IC50 result is “in the range around 550 nM”.

As to `OCCn1nnc(-c2ccccc2Nc2ccc(Cl)c(Cl)c2)n1`, the IC50 result is “in the range around 550 nM”.

With `OCCn1nnc(-c2cc(C3CC3)ccc2Nc2ccc(C(F)(F)F)cc2)n1`, the IC50 was < 100 nM.

Turning to `OCCn1nnc(-c2ccccc2Nc2cc(Cl)c(Cl)c(Cl)c2)n1`, the IC50 result is “in the range around 3000 nM”.

For `OCCn1nnc(-c2ccccc2Nc2ccc(C(F)(F)F)c(Cl)c2)n1`, the IC50 is < 100 nM.

As to `OCCn1nnc(-c2cc(OC(F)(F)F)ccc2Nc2ccc(C(F)(F)F)cc2)n1`, the IC50 entry was “in the range around 550 nM”.

As to `CCc1ccc(Nc2ccc(C(F)(F)F)cc2)c(-c2nnn(CCO)n2)c1`, the 50% inhibitory concentration (IC50) is < 100 nM.

For the compound `OCC(CO)n1nnc(-c2ccccc2Nc2ccc(C(F)(F)F)cc2)n1`, the IC50 was < 100 nM.

`OCCn1nnc(-c2cc(OC(F)F)ccc2Nc2ccc(C(F)(F)F)cc2)n1`: the IC50 was < 100 nM.

Regarding `OCCn1nnc(-c2cc(C(F)(F)F)ccc2Nc2ccc(C(F)(F)F)cc2)n1`, the IC50 result was “in the range around 550 nM”.

Regarding `OCCn1nnc(-c2ccccc2Nc2cccc(Cl)c2)n1`, the IC50 entry is “in the range around 3000 nM”.

With `OCCn1nnc(-c2ccccc2Nc2ccc(SC(F)(F)F)cc2)n1`, the IC50 entry was “in the range around 550 nM”.

Regarding `FC(F)(F)c1ccc(Nc2ccccc2-c2nnn(C3COCOC3)n2)cc1`, the IC50 is < 100 nM.

Consider `OCCn1nnc(-c2cc(C(F)F)ccc2Nc2ccc(C(F)(F)F)cc2)n1`, for which the IC50 entry is “in the range around 550 nM”.

In the case of `OCCn1nnc(-c2cc(Br)ccc2Nc2ccc(C(F)(F)F)cc2)n1`, the IC50 is < 100 nM.
